Active and inactive are the calls of the source.
Key:
[1] = target: T1, Cystine/glutamate transporter (Homo sapiens) (UniProt Q9UPY5); assay: Inhibition of XCT in CpG-A-activated human plasmacytoid dendritic cells at 200 uM assessed as decrease in ENPP2 expression; format: cell-based; conditions: Plasmacytoid dendritic cell
T1 sequence (whole entry): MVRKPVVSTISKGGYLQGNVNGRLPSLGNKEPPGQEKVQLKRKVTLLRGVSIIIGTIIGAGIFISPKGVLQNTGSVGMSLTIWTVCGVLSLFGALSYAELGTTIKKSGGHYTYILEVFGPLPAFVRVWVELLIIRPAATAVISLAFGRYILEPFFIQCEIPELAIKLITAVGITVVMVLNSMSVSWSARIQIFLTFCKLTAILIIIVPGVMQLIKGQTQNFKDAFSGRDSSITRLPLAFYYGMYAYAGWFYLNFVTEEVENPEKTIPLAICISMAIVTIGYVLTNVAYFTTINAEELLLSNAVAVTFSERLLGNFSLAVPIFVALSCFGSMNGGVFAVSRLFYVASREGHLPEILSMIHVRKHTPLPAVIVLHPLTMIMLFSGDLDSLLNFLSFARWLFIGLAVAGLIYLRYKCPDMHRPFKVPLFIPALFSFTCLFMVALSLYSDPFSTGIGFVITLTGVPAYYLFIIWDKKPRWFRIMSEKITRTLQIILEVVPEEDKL

[2] = target: Tyrosine-protein kinase JAK2 (Homo sapiens) (UniProt O60674); assay: Inhibition of JAK2 in CpG-A-activated human plasmacytoid dendritic cells at 100 uM assessed as decrease in TNF production in presence of 25 to 100 uM baricitinib; format: cell-based; conditions: Plasmacytoid dendritic cell
Chain of Tyrosine-protein kinase JAK2 (Homo sapiens) (O60674 whole entry): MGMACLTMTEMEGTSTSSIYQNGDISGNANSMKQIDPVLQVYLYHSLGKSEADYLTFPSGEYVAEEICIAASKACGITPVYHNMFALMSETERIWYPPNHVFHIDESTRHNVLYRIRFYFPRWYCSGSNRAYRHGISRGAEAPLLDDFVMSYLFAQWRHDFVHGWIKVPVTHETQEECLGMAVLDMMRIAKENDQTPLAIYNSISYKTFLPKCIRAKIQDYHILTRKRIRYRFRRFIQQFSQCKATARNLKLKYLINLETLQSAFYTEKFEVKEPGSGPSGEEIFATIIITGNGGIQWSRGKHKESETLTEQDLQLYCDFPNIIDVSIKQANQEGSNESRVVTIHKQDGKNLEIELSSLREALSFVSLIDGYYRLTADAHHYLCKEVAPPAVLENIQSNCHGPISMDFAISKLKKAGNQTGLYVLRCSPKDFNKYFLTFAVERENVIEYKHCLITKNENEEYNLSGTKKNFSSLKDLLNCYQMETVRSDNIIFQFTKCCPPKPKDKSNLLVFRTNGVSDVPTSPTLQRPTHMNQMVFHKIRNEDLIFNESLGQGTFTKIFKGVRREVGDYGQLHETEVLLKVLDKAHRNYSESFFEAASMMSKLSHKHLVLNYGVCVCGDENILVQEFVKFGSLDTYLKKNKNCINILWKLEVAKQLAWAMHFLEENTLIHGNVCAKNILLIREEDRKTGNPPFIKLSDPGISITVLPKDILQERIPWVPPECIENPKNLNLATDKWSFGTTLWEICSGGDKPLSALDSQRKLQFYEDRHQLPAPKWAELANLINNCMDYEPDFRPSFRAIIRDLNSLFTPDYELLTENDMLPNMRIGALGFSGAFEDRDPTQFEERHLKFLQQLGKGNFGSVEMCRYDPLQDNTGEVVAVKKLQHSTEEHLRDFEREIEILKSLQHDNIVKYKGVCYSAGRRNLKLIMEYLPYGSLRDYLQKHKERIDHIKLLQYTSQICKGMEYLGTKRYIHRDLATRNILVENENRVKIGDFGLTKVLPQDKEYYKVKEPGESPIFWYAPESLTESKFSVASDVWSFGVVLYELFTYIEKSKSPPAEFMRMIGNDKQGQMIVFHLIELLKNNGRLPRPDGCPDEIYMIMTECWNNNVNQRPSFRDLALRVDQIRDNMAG

[3] = target: T1, Cystine/glutamate transporter (Homo sapiens); assay: Inhibition of XCT in IL-3 and CpG-A-stimulated human plasmacytoid dendritic cells at 100 uM assessed as decrease in IFN-alpha production in presence of 0.2 to 5 ug/ml IGN523; format: cell-based; conditions: Plasmacytoid dendritic cell
[4] = target: T1, Cystine/glutamate transporter (Homo sapiens); assay: Inhibition of XCT in CpG-A-activated human plasmacytoid dendritic cells at 200 uM assessed as decrease in kynurenine uptake; format: cell-based; conditions: Plasmacytoid dendritic cell
[5] = target: T1, Cystine/glutamate transporter (Homo sapiens); assay: Inhibition of XCT in IL-3 and CpG-A-stimulated human plasmacytoid dendritic cells assessed as decrease in IFN-alpha production in presence of mavrilimumab; format: cell-based; conditions: Plasmacytoid dendritic cell
[6] = target: T1, Cystine/glutamate transporter (Homo sapiens); assay: Inhibition of XCT in CpG-A-activated human plasmacytoid dendritic cells at 200 uM assessed as decrease in IFN-alpha production; format: cell-based; conditions: Plasmacytoid dendritic cell
[7] = target: T1, Cystine/glutamate transporter (Homo sapiens); assay: Inhibition of XCT in IL-3 and CpG-A-stimulated human plasmacytoid dendritic cells at 100 uM assessed as decrease in IFN-alpha production in presence of 1 to 2 uM pimozide; format: cell-based; conditions: Plasmacytoid dendritic cell
[8] = target: T1, Cystine/glutamate transporter (Homo sapiens); assay: Inhibition of XCT in CpG-A-activated human plasmacytoid dendritic cells at 200 uM assessed as decrease in MYO1E expression; format: cell-based; conditions: Plasmacytoid dendritic cell
[9] = target: T1, Cystine/glutamate transporter (Homo sapiens); assay: Inhibition of XCT in IL-3 and CpG-A-stimulated human plasmacytoid dendritic cells assessed as decrease in TNF production in presence of mavrilimumab; format: cell-based; conditions: Plasmacytoid dendritic cell
[10] = target: T1, Cystine/glutamate transporter (Homo sapiens); assay: Inhibition of XCT in IL-3 and CpG-A-stimulated human plasmacytoid dendritic cells at 100 uM assessed as decrease in TNF production in presence of 10 to 50 nM IQDMA; format: cell-based; conditions: Plasmacytoid dendritic cell
[11] = target: T1, Cystine/glutamate transporter (Homo sapiens); assay: Inhibition of XCT in IL-3 and CpG-A-stimulated human plasmacytoid dendritic cells at 100 uM assessed as decrease in IFN-alpha production in presence of 10 to 50 nM IQDMA; format: cell-based; conditions: Plasmacytoid dendritic cell
[12] = target: T1, Cystine/glutamate transporter (Homo sapiens); assay: Inhibition of XCT in IL-3 and CpG-A-stimulated human plasmacytoid dendritic cells at 100 uM assessed as decrease in IFN-alpha production in presence of 1 to 2 uM JPH203; format: cell-based; conditions: Plasmacytoid dendritic cell
[13] = target: T1, Cystine/glutamate transporter (Homo sapiens); assay: Inhibition of XCT in CpG-A-activated human plasmacytoid dendritic cells at 200 uM assessed as decrease in S6 phosphorylation; format: cell-based; conditions: Plasmacytoid dendritic cell
[14] = target: T1, Cystine/glutamate transporter (Homo sapiens); assay: Inhibition of XCT in CpG-A-activated human plasmacytoid dendritic cells at 100 uM assessed as decrease in IFN-alpha production in presence of 25 to 100 uM baricitinib; format: cell-based; conditions: Plasmacytoid dendritic cell
[15] = target: T1, Cystine/glutamate transporter (Homo sapiens); assay: Inhibition of XCT in CpG-A-activated human plasmacytoid dendritic cells at 200 uM assessed as decrease in TNF production; format: cell-based; conditions: Plasmacytoid dendritic cell
[16] = target: T1, Cystine/glutamate transporter (Homo sapiens); assay: Inhibition of XCT in IL-3 and CpG-A-stimulated human plasmacytoid dendritic cells at 100 uM assessed as decrease in IFN-alpha production in presence of 1 to 2 uM AC-4-130; format: cell-based; conditions: Plasmacytoid dendritic cell
[17] = target: T1, Cystine/glutamate transporter (Homo sapiens); assay: Inhibition of XCT in IL-3 and CpG-A-stimulated human plasmacytoid dendritic cells at 100 uM assessed as decrease in TNF production in presence of 1 to 2 uM AC-4-130; format: cell-based; conditions: Plasmacytoid dendritic cell
[18] = target: T1, Cystine/glutamate transporter (Homo sapiens); assay: Inhibition of XCT in IL-3 and CpG-A-stimulated human plasmacytoid dendritic cells at 100 uM assessed as decrease in TNF production in presence of 0.2 to 5 ug/ml IGN523; format: cell-based; conditions: Plasmacytoid dendritic cell
[19] = target: T1, Cystine/glutamate transporter (Homo sapiens); assay: Inhibition of XCT in IL-3 and CpG-A-stimulated human plasmacytoid dendritic cells at 100 uM assessed as decrease in TNF production in presence of 1 to 2 uM JPH203; format: cell-based; conditions: Plasmacytoid dendritic cell
[20] = target: T1, Cystine/glutamate transporter (Homo sapiens); assay: Inhibition of XCT in IL-3 CpG-A-activated human plasma at 100 uM assessed as decrease in pDC activation in presence of 0.1 uM baricitinib
[21] = target: T1, Cystine/glutamate transporter (Homo sapiens); assay: Inhibition of XCT in IL-3 and CpG-A-stimulated human plasmacytoid dendritic cells at 100 uM assessed as decrease in TNF production in presence of 1 to 2 uM pimozide; format: cell-based; conditions: Plasmacytoid dendritic cell
[22] = target: T1, Cystine/glutamate transporter (Homo sapiens); assay: Inhibition of XCT in IL-3 CpG-A-activated human plasma at 200 uM assessed as decrease in pDC activation
[23] = target: T2, Janus Kinase (JAK) (Homo sapiens) (UniProt P52333+P23458+O60674+P29597); assay: Inhibition of JAK in IL-3 and CpG-A-stimulated human plasmacytoid dendritic cells at 0.2 to 20 uM assessed as decrease in TNF production; format: cell-based; conditions: Plasmacytoid dendritic cell, dose 0.2-20 µM
[24] = target: T2, Janus Kinase (JAK) (Homo sapiens); assay: Inhibition of JAK in IL-3 and CpG-A-stimulated human plasmacytoid dendritic cells at 0.2 to 20 uM assessed as decrease in IFN-alpha production; format: cell-based; conditions: Plasmacytoid dendritic cell, dose 0.2-20 µM
[25] = target: Large neutral amino acids transporter small subunit 1 (Homo sapiens) (UniProt Q01650); assay: Inhibition of SLC7A5 in CpG-A-stimulated human plasmacytoid dendritic cells at 5 to 10 uM assessed as decrease in TNF production; format: cell-based; conditions: Plasmacytoid dendritic cell, dose 5-10 µM
Chain of Large neutral amino acids transporter small subunit 1 (Homo sapiens) (Q01650 whole entry): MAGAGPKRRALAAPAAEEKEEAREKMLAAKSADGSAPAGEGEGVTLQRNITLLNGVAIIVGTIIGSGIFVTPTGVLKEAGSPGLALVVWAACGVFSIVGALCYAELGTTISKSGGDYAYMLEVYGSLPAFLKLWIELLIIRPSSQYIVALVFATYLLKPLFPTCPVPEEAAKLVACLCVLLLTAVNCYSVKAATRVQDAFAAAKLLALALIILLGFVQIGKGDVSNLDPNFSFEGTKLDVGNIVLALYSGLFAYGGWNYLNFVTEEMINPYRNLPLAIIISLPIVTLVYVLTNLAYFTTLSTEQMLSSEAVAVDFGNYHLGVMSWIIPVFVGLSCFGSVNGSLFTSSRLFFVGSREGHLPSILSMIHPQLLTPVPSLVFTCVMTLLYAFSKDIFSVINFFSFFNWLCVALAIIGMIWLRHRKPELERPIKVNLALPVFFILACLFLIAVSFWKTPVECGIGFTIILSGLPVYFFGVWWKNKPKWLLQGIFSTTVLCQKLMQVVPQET

[26] = system: Plasmacytoid dendritic cell; assay: Inhibition of SLC7A5/SLC3A2 in IL-3 and CpG-A-stimulated human plasmacytoid dendritic cells at 1 to 2 uM assessed as decrease in TNF production in presence of 100 uM sulfasalazine; format: cell-based; conditions: dose 1-2 µM
[27] = target: Large neutral amino acids transporter small subunit 1 (Homo sapiens) (UniProt Q01650); assay: Inhibition of SLC7A5 in CpG-A-stimulated human plasmacytoid dendritic cells at 5 to 10 uM assessed as decrease in IFN-alpha production; format: cell-based; conditions: Plasmacytoid dendritic cell, dose 5-10 µM
[28] = system: Plasmacytoid dendritic cell; assay: Inhibition of SLC7A5/SLC3A2 in IL-3 and CpG-A-stimulated human plasmacytoid dendritic cells at 1 to 2 uM assessed as decrease in IFN-alpha production in presence of 100 uM sulfasalazine; format: cell-based; conditions: dose 1-2 µM
[29] = target: Large neutral amino acids transporter small subunit 1 (Homo sapiens) (UniProt Q01650); assay: Inhibition of SLC7A5 in CpG-A-stimulated human plasmacytoid dendritic cells at 5 to 10 uM assessed as decrease in pS6 levels; format: cell-based; conditions: Plasmacytoid dendritic cell, dose 5-10 µM
[30] = target: Large neutral amino acids transporter small subunit 1 (Homo sapiens) (UniProt Q01650); assay: Inhibition of SLC7A5 in CpG-A-stimulated human plasmacytoid dendritic cells at 5 to 10 uM assessed as decrease in kynurenine transport; format: cell-based; conditions: Plasmacytoid dendritic cell, dose 5-10 µM

Measured: inhibition

O=C(O)c1cc(/N=N/c2ccc(S(=O)(=O)Nc3ccccn3)cc2)ccc1O
not listed: [23] | [24] | [25] | [26] | [27] | [28] | [29] | [30]
active: all other assays above

CN(Cc1cnc2nc(N)nc(N)c2n1)c1ccc(C(=O)N[C@@H](CCC(=O)O)C(=O)O)cc1
active: [23] | [24]

Nc1cc(COc2c(Cl)cc(C[C@H](N)C(=O)O)cc2Cl)c2oc(-c3ccccc3)nc2c1
active: [25] | [26] | [27] | [28] | [29] | [30]

Source: ChEMBL document CHEMBL5393457, “Combined inhibition of amino acid transporters for inhibiting human plasmacytoid dendritic cell activity during autoimmunity” (2022)
